Data as given in article PMC6130490, “Inhibition of key enzymes linked to type 2 diabetes by compounds isolated from Aframomum melegueta fruit” (Pharmaceutical Biology, 2017).
Like-named read-outs stand apart in the source and are kept apart here.

Experiments:
Assay type in all cases: biochemical
[1] = biological target: T1, Saccharomyces cerevisiae α-glucosidase (E.C. 3.2.1.20) (Saccharomyces cerevisiae, UniProt P53341); assay: biochemical; details: for type of inhibition of α-glucosidase: Lineweaver-Burke plot
T1 construct: purchased Sigma-Aldrich through Capital Lab Supplies
T1 sequence (P53341 whole entry): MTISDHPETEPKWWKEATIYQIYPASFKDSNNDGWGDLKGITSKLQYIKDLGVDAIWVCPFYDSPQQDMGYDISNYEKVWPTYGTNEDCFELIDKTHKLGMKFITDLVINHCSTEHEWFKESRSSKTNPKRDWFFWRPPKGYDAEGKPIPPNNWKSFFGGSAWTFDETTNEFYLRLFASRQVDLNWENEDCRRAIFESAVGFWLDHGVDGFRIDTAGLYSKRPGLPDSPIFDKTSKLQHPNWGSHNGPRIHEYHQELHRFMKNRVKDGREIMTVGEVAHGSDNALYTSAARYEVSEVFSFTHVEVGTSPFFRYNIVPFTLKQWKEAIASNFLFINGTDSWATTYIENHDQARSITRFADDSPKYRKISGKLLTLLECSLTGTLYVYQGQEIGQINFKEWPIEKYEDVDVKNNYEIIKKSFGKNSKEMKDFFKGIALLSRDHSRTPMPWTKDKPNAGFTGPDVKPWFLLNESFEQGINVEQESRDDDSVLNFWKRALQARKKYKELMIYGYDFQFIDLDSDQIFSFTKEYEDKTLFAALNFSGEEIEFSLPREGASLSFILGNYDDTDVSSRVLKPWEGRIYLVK
Method: (§1) The 5.0 mM p-nitrophenyl glucopyranoside (pNPG) substrate solution was prepared in 20 mM phosphate buffer, pH 6.9. […] Thereafter, 250 μL of 5.0 mM pNPG was dissolved in 20 mM phosphate buffer (pH 6.9) as a substrate to start the reaction. The reaction mixture was incubated at 37 °C for 30 min.
(§2) The isolated compounds were subjected to kinetic experiments to determine the type of inhibition exerted on α-amylase and α-glucosidase. The experiment was conducted according to the protocols mentioned above at a constant concentration of the compounds (30 μg/mL) with a variable concentration of substrate. […] The initial velocity data obtained were used to construct Lineweaver-Burke plots to determine the K M (Michaelis constant) and v max (maximum velocity) of the enzyme as well as the Ki (inhibition binding constant as a measure of affinity of the inhibitor to the enzyme) and the type of inhibition for both enzymes.

[2] = biological target: T2, porcine pancreatic α-amylase (E.C. 3.2.1.1) (Sus scrofa, UniProt P00690); assay: α-Amylase inhibitory effect (starch/DNS method); details: mean ± SD of triplicate; compounds tested at 30–240 μg/mL; read-out: IC50 α-amylase inhibition
T2 construct: purchased Sigma-Aldrich through Capital Lab Supplies
T2 sequence (P00690 16-511): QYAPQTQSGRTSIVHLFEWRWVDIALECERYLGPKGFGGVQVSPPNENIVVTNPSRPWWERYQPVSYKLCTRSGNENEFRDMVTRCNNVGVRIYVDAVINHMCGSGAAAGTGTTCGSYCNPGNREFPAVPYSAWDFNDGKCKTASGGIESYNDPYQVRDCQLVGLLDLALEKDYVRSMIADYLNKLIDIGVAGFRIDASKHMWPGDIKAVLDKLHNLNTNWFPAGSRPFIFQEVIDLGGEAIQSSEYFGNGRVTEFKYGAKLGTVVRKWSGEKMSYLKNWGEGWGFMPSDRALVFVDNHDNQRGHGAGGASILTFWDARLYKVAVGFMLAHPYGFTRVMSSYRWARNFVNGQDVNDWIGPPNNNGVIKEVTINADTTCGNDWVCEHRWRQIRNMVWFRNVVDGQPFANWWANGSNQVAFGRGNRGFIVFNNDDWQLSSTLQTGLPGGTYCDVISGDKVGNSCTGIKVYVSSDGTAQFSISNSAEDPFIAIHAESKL
Method: (§3) Saccharomyces cerevisiae α-glucosidase (E.C. 3.2.1.20), porcine pancreatic α-amylase (E.C. 3.2.1.1), p-nitrophenyl glucopyranoside (pNPG) and p-nitrophenol were obtained from Sigma-Aldrich through Capital Lab Supplies, New Germany, South Africa. Starch, dinitrosalicylic acid (DNS), maltose, absolute ethanol and ethyl acetate were obtained from Merck Chemical Company, Durban, South Africa.
(§4) This solution was pre-incubated at 25 °C for 10 min, after which 250 μL of 1% starch solution in 0.02 M sodium phosphate buffer (pH 6.9) was added at a time interval of 10 s and then further incubated at 25 °C for 10 min. The reaction was terminated after incubation by adding 1 mL of dinitrosalicylic acid (DNS) reagent. The tube was then boiled for 10 min and cooled to room temperature. […] A control was prepared using the same procedure using distilled water instead of the compound.

[3] = biological target: T2, porcine pancreatic α-amylase (E.C. 3.2.1.1); assay: Mechanism of α-amylase inhibition (Lineweaver-Burke kinetics); details: compound 30 μg/mL; for type of inhibition of α-amylase: Lineweaver-Burke plot; for KM, α-amylase inhibition / Ki / Vmax, α-amylase inhibition: starch 0.063–1.0%
Method: as §4, §2

[4] = biological target: T1, Saccharomyces cerevisiae α-glucosidase (E.C. 3.2.1.20); assay: α-Glucosidase inhibitory effect (pNPG method)
Method: as §3, §1

[5] = compound 30 μg/mL, pNPG 0.313–5.0 mM
[6] = compound 30 μg/mL, pNPG 0.313–5.0 mM, read-out: Ki, α-glucosidase inhibition (converted)
[7] = mean ± SD of triplicate, compounds tested at 30–240 μg/mL, read-out: IC50 α-glucosidase inhibition

SMILES | Ki [1] | type of inhibition of α-glucosidase ([1]; compound 30 μg/mL) | Vmax, α-glucosidase inhibition [1, 5] | IC50 [2] | type of inhibition of α-amylase [3] | KM, α-amylase inhibition [3] | Ki [3] | Vmax, α-amylase inhibition [3] | IC50 [4] | Ki [1, 6] | IC50 [4, 7]
CCCCC[C@H](O)CC(=O)CCc1ccc(O)c(OC)c1 [6-Gingerol (3), 6-gingerol] | 26.6 µM | noncompetitive | 123.10 µmol/min | 81.8 ± 7.79 µM | noncompetitive | 0.06% | 89.9 µM | 16.73 µmol/min | 21.5 ± 0.45 µM | – | –
CCCCCCCC(=O)CCc1ccc(O)c(OC)c1 [6-Paradol (1), 6-paradol] | – | noncompetitive | 81.20 µmol/min | 665 ± 11.6 µM | noncompetitive | 0.06% | 83.7 µM | 15.60 µmol/min | – | 22.4 µM | 243 ± 6.65 µM
CCCCC/C=C/C(=O)CCc1ccc(O)c(OC)c1 [6-Shagaol (2), 6-shogaol] | – | – | 55.70 µmol/min | 443.2 ± 1.38 µM | mixed | 0.09% | 226 µM | 24.10 µmol/min | – | 14.5 µM | 326 ± 5.6 µM
CC1(C)CC[C@]2(C(=O)O)CC[C@]3(C)C(=CC[C@@H]4[C@@]5(C)CC[C@H](O)C(C)(C)[C@@H]5CC[C@]43C)[C@@H]2C1 [Oleanolic acid (4), oleanolic acid] | – | – | 64.20 µmol/min | – | – | – | – | – | – | – | –
